Assay results published in patent US6545032B1, “Synthesis of [3,5,7]-H-imidazo[1,5-a] imidazol-2(3H)-one compounds” (Torrey Pines Institute for Molecular Studies, priority 1999, dated 2003).

Columns and labels:
kappa opiate receptor = biological target: T1, kappa opiate receptor (Cavia porcellus, UniProt P41144); assay: Inhibition of tritiated U69,593 binding to the kappa opiate receptor in guinea pig brain homogenates; design: Mean: unit not given beside the values; conditions: 3 nm tritiated U69,593, guinea pig brain membranes; for % Bound: [3H]U69,593 bound; for % Inhibition: inhibition of [3H]U69,593 binding; for Mean: mean bound radioactivity of [3H]U69,593, 2.5 hours 25° C.; for Minus NSB: mean minus non-specific binding
T1 construct: guinea pig cortices and cerebella were homogenized in 40 mL of Buffer A; from tissue; host or cells: guinea pig cortices and cerebella, crude membrane suspension
T1 sequence (P41144 whole entry): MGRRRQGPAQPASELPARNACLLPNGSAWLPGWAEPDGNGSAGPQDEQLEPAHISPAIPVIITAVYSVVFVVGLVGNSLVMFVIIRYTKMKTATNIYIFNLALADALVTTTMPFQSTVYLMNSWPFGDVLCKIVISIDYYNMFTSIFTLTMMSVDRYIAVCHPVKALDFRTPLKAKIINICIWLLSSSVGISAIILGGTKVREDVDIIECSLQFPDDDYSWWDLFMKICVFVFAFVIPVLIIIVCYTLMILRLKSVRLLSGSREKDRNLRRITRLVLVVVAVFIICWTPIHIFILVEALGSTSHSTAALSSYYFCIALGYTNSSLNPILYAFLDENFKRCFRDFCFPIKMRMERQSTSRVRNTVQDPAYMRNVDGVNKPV
Protocol: The above-prepared library of individual compounds was screened for the ability to inhibit the binding of tritiated Compound U69,593 that is known to bind specifically to the kappa opiate receptor present in guinea pig brain homogenates following literature procedures. [Dooley et al., J. Biol. Chem., 273(30) 18848-18856 (1998)]
Briefly, guinea pig cortices and cerebella were homogenized in 40 mL of Buffer A [50 mM Tris-HCl, pH 7.4] at 4° C. Homogenates were centrifuged [Beckman® J2-HC, 35, 300×g] for 10 minutes. The pellets were resuspended in fresh buffer and incubated at 37° C. for 40 minutes. Following incubation, the suspensions were centrifuged as before, the resulting pellets resuspended in 100 volumes of Tris buffer, and the suspensions combined. Membrane suspensions were prepared and used on the same day. Protein content of the crude homogenates was determined by the method of Bradford, Anal. Biochem., 72:248-252 (1976).
Each assay tube contained 0.5 mL of membrane suspension, 3 nm of tritiated Compound U69,593 [(5a,7a,8b)-(−)-N-methyl-N-(7-(1-pyrrolidinyl)-1-oxaspiro(4,5)dec-8-yl)-benzeneacetamide; Lahti et al., European J. Pharmacol., 109:281-284(199-85)] in a total volume of 0.65 mL. Assay tubes were incubated for 2.5 hours a 25° C. The assay was then filtered through GF-B filters on a Tomec™ harvester (Orange, Conn.). The filters were subsequently washed with 6 mL of 50 mM Tris-HC1, pH 7.4 at 4° C. Bound radioactivity was counted on a Wallace™ Beta-plate Liquid Scintillation Counter (Piscataway, N.J.). Unlabeled U50, 488 [(trans-(dl)-3,4-dichloro-N-methyl-N-[2-(1-pyrrolidinyl)cyclohexyl]-benzeneacetamide) methane sulfonate hydrate; Lahti et al., Life Sci., 31:2257-xx(1982) and Von Voightlander et al., J. Pharmacol. Exp. Ther., 224:7 (1983)] was used as a competitive inhibitor to generate a standard curve and determine nonspecific binding. The results of these assays are shown in the table, below, wherein the “R” groups are as discussed for Example 1.

mu opiate receptor = biological target: T2, mu opiate receptor (Rattus norvegicus, UniProt P33535); assay: Inhibition of [3H]DAMGO binding to the mu opiate receptor in rat brain homogenates; design: Mean: unit not given beside the values; conditions: 0.08 mg of compound per milliliter, 7 nM 3H-labeled DAMGO, rat brain membranes; for % Bound: [3H]DAMGO bound; for Mean: mean bound radioactivity of [3H]DAMGO; for Minus NSB*: mean minus non-specific binding; for % Inhibition: percent inhibition of DAMGO binding
T2 construct: from tissue; host or cells: rat brain membranes/homogenate
T2 sequence (P33535 whole entry): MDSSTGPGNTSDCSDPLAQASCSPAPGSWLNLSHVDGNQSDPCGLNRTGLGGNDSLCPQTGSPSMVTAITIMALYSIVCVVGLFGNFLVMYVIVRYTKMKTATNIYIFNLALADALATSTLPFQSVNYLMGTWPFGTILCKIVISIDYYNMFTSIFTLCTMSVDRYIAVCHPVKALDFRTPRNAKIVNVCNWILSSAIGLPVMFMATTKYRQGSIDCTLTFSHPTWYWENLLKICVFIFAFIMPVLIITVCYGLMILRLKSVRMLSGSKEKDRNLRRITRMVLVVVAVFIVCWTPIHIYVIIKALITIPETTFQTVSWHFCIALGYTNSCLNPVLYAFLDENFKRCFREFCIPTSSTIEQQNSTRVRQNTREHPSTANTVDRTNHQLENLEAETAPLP
Protocol: The previously prepared [3,5,7]-1H-imidazo[1,5-a]-imidazol-2(3H)-one library of individual compounds was screened for the ability to inhibit the binding of [^3H] [D-Ala^2,MePhe^4,Gly^5-ol]enkephalin (DAMGO) that is known to bind specifically to the mu opiate receptor present in rat brain homogenates following literature procedures. [Dooley et al., Science, 266:2019(1994); U.S. Pat. No. 5,763,193.]
Preparation of rat brain membranes and the receptor binding assay were carried out as described in Dooley et al., Life Sci., 52:1509(1993). Each tube in the screening assay contained 0.08 mg of compound mixture per milliliter, 0.5 mL of membrane suspension (0.1 mg of protein), 7 nM ^3H-labeled DAMGO [specific activity 36 Ci/mmol, obtained from the National Institute on Drug Abuse (NIDA) repository through Chiron Mimotopes PeptideSystems (San Diego, Calif.) and […] of peptide mixture in 50 mM Tris-HCl buffer (pH 7.4). The final volume was 0.65 mL. The results of these screenings are shown in the table, below, wherein the “R” groups are as discussed for Example 1. The results are reported as percent inhibition of DAMGO binding.

Row | SMILES | % Bound (kappa opiate receptor) [%] | % Inhibition (kappa opiate receptor) [%] | Mean (kappa opiate receptor) | Minus NSB (kappa opiate receptor) | % Bound (mu opiate receptor) [%] | Mean (mu opiate receptor) | Minus NSB* (mu opiate receptor) | % Inhibition (mu opiate receptor) [%]
1 | Cc1nc(C(C)C)c2n1C(Cc1ccccc1)C(=O)N2 (stereo not shown) [Pool 30] | 74.884 | 25.116 | 1682.8 | 775.80 | 65 | 929.9 | 621.90 | 35
2 | Cc1ncc2n1C(C(C)C)C(=O)N2 (stereo not shown) [Pool 34] | 79.117 | 20.883 | 1726.65 | 819.65 | 68 | 956.4 | 648.40 | 32
3 | Cc1nc(C)n2c1NC(=O)C2C(C)C (stereo not shown) [Pool 35] | 77.693 | 22.307 | 1711.9 | 804.90 | 47 | 753.5 | 445.50 | 53
4 | Cc1nc(C(C)C)c2n1C(C(C)C)C(=O)N2 (stereo not shown) [Pool 36] | 84.976 | 15.024 | 1787.35 | 880.35 | 66 | 940.6 | 632.60 | 34
5 | Cc1nc(CC(C)C)c2n1C(C(C)C)C(=O)N2 (stereo not shown) [Pool 37] | 62.973 | 37.027 | 1559.4 | 652.40 | 66 | 932.9 | 624.90 | 34
6 | CCC(C)c1nc(C)n2c1NC(=O)C2C(C)C (stereo not shown) [Pool 38] | 68.639 | 31.361 | 1618.1 | 711.10 | 40 | 687.75 | 379.75 | 60
7 | Cc1nc(CCCCN)c2n1C(C(C)C)C(=O)N2 (stereo not shown) [Pool 41] | 51.853 | 48.147 | 1444.2 | 537.20 | 58 | 858.1 | 550.10 | 42
8 | Cc1nc(CCCNC(=N)N)c2n1C(C(C)C)C(=O)N2 (stereo not shown) [Pool 42] | 48.200 | 51.800 | 1406.35 | 499.35 | 29 | 581.65 | 273.65 | 71
9 | CCCCc1nc(C)n2c1NC(=O)C2C(C)C (stereo not shown) [Pool 44] | 110.299 | −10.299 | 2049.7 | 1142.70 | 67 | 947.55 | 639.55 | 33
10 | CCCc1nc(C)n2c1NC(=O)C2C(C)C (stereo not shown) [Pool 45] | 85.275 | 14.725 | 1790.45 | 883.45 | 62 | 902.55 | 594.55 | 38
11 | Cc1nc(CC2CCCCC2)c2n1C(C(C)C)C(=O)N2 (stereo not shown) [Pool 46] | 121.815 | −21.815 | 2169 | 1262.00 | 60 | 881.4 | 573.40 | 40
12 | Cc1nc(Cc2ccccc2)c2n1C(C(C)C)C(=O)N2 (stereo not shown) [Pool 47] | 104.469 | −4.469 | 1989.3 | 1082.30 | 62 | 897.8 | 589.80 | 38
13 | Cc1nc(Cc2ccc(O)cc2)c2n1C(C(C)C)C(=O)N2 (stereo not shown) [Pool 48] | 84.653 | 15.347 | 1784 | 877.00 | 44 | 728.5 | 420.50 | 56
14 | Cc1nc(C)n2c1NC(=O)C2C(C)C (stereo not shown) [Pool 51] | 71.313 | 28.687 | 1645.8 | 738.80 | 62 | 902.75 | 594.75 | 38
15 | Cc1nc(C(C)C)c2n1C(C(C)C)C(=O)N2 (stereo not shown) [Pool 52] | 74.744 | 25.256 | 1681.35 | 774.35 | 68 | 959.85 | 651.85 | 32
16 | Cc1nc(CC(C)C)c2n1C(C(C)C)C(=O)N2 (stereo not shown) [Pool 53] | 106.356 | −6.356 | 2008.85 | 1101.85 | 71 | 988.95 | 680.95 | 29
17 | CCC(C)c1nc(C)n2c1NC(=O)C2C(C)C (stereo not shown) [Pool 54] | 100.410 | −0.410 | 1947.25 | 1040.25 | 53 | 815.2 | 507.20 | 47
18 | CC(C)Cc1nc(C(C)C)c2n1C(C(C)C)C(=O)N2 (stereo not shown) [Pool 125] | 62.384 | 37.616 | 1553.3 | 646.30 | 48 | 763.7 | 455.70 | 52
19 | CCC(C)Cc1nc(C(C)C)c2n1C(C(C)C)C(=O)N2 (stereo not shown) [Pool 126] | 73.311 | 26.689 | 1666.5 | 759.50 | 64 | 918.7 | 610.70 | 36
20 | CC(C)CCc1nc(C(C)C)c2n1C(C(C)C)C(=O)N2 (stereo not shown) [Pool 127] | 66.178 | 33.822 | 1592.6 | 685.60 | 63 | 909.6 | 601.60 | 37
21 | CC(C)c1nc(C(C)(C)C)n2c1NC(=O)C2C(C)C (stereo not shown) [Pool 135] | 69.170 | 30.830 | 1623.6 | 716.60 | 65 | 931.85 | 623.85 | 35
22 | CC(C)c1nc(CC(C)(C)C)n2c1NC(=O)C2C(C)C (stereo not shown) [Pool 136] | 80.589 | 19.411 | 1741.9 | 834.90 | 72 | 991 | 683.00 | 28
23 | CC(C)c1nc(C2CCCCC2)n2c1NC(=O)C2C(C)C (stereo not shown) [Pool 137] | 129.619 | −29.619 | 2249.85 | 1342.85 | 66 | 933.35 | 625.35 | 34
